Read-outs that look alike come from different tables or passages of the source.

Assay [1] concerns A2780 cells. Put plainly: In-vitro cell proliferation assay (SRB), A2780 cells. It is filed as cell-based. The note with it: A2780 cells, 72 hours, SRB, read-out: A2780 IC50. The essentials: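 Proliferation is assessed by sulforhodamine B staining following a 72-hour incubation with compound dilutions containing 0.1% DMSO.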
The target of assay [2] is T1, NAMPT (Homo sapiens, UniProt P43490).
T1 construct: His tag; host or cells: E. coli
T1 sequence (P43490 whole entry): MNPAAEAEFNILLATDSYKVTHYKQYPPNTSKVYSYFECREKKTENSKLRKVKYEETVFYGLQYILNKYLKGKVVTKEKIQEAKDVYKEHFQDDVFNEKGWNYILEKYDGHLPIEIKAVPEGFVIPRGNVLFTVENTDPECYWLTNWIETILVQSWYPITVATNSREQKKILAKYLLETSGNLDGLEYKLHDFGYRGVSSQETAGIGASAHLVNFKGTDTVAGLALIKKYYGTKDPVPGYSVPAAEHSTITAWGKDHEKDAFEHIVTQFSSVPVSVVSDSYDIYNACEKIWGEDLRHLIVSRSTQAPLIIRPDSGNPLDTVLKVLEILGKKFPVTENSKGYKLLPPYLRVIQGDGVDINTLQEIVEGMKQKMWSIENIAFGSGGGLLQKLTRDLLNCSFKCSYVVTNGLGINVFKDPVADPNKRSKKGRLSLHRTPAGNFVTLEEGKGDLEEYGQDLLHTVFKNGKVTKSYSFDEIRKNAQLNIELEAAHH
Put plainly: Biochemical inhibition assay: NAMPT enzymatic reaction, NMN quantified by mass spectrometry. The note with it: NAMPT enzymatic reaction; read-out: Biochem IC50. The essentials:
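Inhibition of E. coli-expressed His-tagged human NAMPT, measured as NMN formation by mass spectrometry after a 30 min room-temperature reaction containing 1 μM NAM, 100 μM PRPP and 2.5 mM ATP.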

The IC50 is the midpoint of a concentration-inhibition curve. Take `Cc1ccc(Cl)c(S(=O)(=O)c2ccc(CNC(=O)c3cc4ccncc4s3)cc2)c1`: the IC50 in assay [1] (Homo sapiens, A2780, 72 h) was 4.9 nM; in assay [2], 2.2 nM.
As for `COc1ccc(Cl)c(S(=O)(=O)c2ccc(CNC(=O)c3cc4cnccc4[nH]3)cc2)c1`, the half-inhibitory concentration (IC50) in assay [1] (Homo sapiens, A2780, 72 h) stood at 9.7 nM; in assay [2], 11 nM.
With `COc1ccc(Cl)c(S(=O)(=O)c2ccc(CNC(=O)c3cc4ccncc4o3)cc2)c1`, the IC50 in assay [1] (Homo sapiens, A2780, 72 h) came to 20.6 nM; in assay [2] it was 2.6 nM.
On the same counts, the results for `COc1ccc(Cl)c(S(=O)(=O)c2ccc(CNC(=O)c3cc4ccncc4s3)cc2)c1` are 5.3 nM and 4.9 nM.
On the same counts, the results for `COc1ccc(Cl)c(S(=O)(=O)c2ccc(CNC(=O)c3ccc4nccn4c3)cc2)c1` are 2.7 nM and 5.6 nM.
On the same counts, the results for `COc1ccc(Cl)c(S(=O)(=O)c2ccc(CNC(=O)c3cnc4nccn4c3)cc2)c1` are 51.5 nM and 6.1 nM.
Consider `Cc1ccc(Cl)c(S(=O)(=O)c2ccc(CNC(=O)c3cc4ccncc4o3)cc2)c1`, for which the 50% inhibitory concentration (IC50) in assay [1] (Homo sapiens, A2780, 72 h) was 14.9 nM; in assay [2], 17.8 nM.
On the same counts, the results for `Cc1ccc(Cl)c(S(=O)(=O)c2ccc(CNC(=O)c3ccc4nccn4c3)cc2)c1` are 4.6 nM and 5.6 nM.
For `Cc1ccc(Cl)c(S(=O)(=O)c2ccc(CNC(=O)c3cnc4[nH]ncc4c3)cc2)c1`, the IC50 in assay [1] (Homo sapiens, A2780, 72 h) came out at 65.9 nM; in assay [2], 60.2 nM.
On the same counts, the results for `Cc1ccc(Cl)c(S(=O)(=O)c2ccc(CNC(=O)c3cc4cnccc4[nH]3)cc2)c1` are 9.1 nM and 18.8 nM.
Turning to `Cc1ccc(Cl)c(S(=O)(=O)c2ccc(CNC(=O)c3cnc4nccn4c3)cc2)c1`, the IC50 in assay [1] (Homo sapiens, A2780, 72 h) came out at 22.5 nM; in assay [2] it was 5.7 nM.
Take `O=C(NCc1ccc(S(=O)(=O)c2c(F)cccc2Cl)cc1)c1cc2cnccc2[nH]1`: the IC50 is 37.1 nM in assay [1] (Homo sapiens, A2780, 72 h) and 114 nM in assay [2].
As for `O=C(NCc1ccc(S(=O)(=O)c2c(F)cccc2Cl)cc1)c1ccc2nccn2c1`, the half-inhibitory concentration (IC50) in assay [1] (Homo sapiens, A2780, 72 h) amounted to 76.6 nM; in assay [2], 172 nM.
On the same counts, the results for `COc1cccc(Cl)c1S(=O)(=O)c1ccc(CNC(=O)c2cc3ccncc3o2)cc1` are 21.4 nM and 16.7 nM.
On the same counts, the results for `COc1cccc(Cl)c1S(=O)(=O)c1ccc(CNC(=O)c2cc3ccncc3s2)cc1` are 2.9 nM and 2.7 nM.
On the same counts, the results for `O=C(NCc1ccc(S(=O)(=O)c2ccccc2Cl)cc1)c1cc2ccncc2s1` are 6.6 nM and 2.4 nM.
Turning to `N#Cc1ccccc1S(=O)(=O)c1ccc(CNC(=O)c2ccc3nccn3c2)cc1`, the IC50 in assay [1] (Homo sapiens, A2780, 72 h) is 61.3 nM; in assay [2] it was 15.6 nM.
On the same counts, the results for `CCOc1cc(F)ccc1S(=O)(=O)c1ccc(CNC(=O)c2ccc3nccn3c2)cc1` are 1.5 nM and 31.4 nM.
On the same counts, the results for `CCOc1cc(F)ccc1S(=O)(=O)c1ccc(CNC(=O)c2cc3ccncc3o2)cc1` are 6.9 nM and 7.7 nM.
Consider `CCOc1cc(F)ccc1S(=O)(=O)c1ccc(CNC(=O)c2cnc3[nH]ncc3c2)cc1`, for which the IC50 in assay [1] (Homo sapiens, A2780, 72 h) was 67 nM; in assay [2], 86.3 nM.
Regarding `CCOc1cc(F)ccc1S(=O)(=O)c1ccc(CNC(=O)c2cc3ccncc3s2)cc1`, the concentration for half-maximal inhibition (IC50) is 0.9 nM in assay [1] (Homo sapiens, A2780, 72 h) and 3.8 nM in assay [2].
For the compound `CCOc1ccccc1S(=O)(=O)c1ccc(CNC(=O)c2cnc3[nH]ncc3c2)cc1`, the half-inhibitory concentration (IC50) in assay [1] (Homo sapiens, A2780, 72 h) was found to be 26.9 nM; in assay [2], 49.3 nM.
On the same counts, the results for `CCOc1ccccc1S(=O)(=O)c1ccc(CNC(=O)c2cnc3nccn3c2)cc1` are 7.1 nM and 1 nM.
On the same counts, the results for `CCc1ccccc1S(=O)(=O)c1ccc(CNC(=O)c2cnc3nccn3c2)cc1` are 24.9 nM and 2.5 nM.
On the same counts, the results for `COc1cccc(S(=O)(=O)c2ccc(CNC(=O)c3cnc4[nH]ncc4c3)cc2)c1F` are 56.3 nM and 8.6 nM.
As to `Cc1cccc(S(=O)(=O)c2ccc(CNC(=O)c3cc4cnccc4[nH]3)cc2)c1F`, the IC50 in assay [1] (Homo sapiens, A2780, 72 h) was determined as 7 nM; in assay [2], 75.8 nM.
On the same counts, the results for `Cc1cccc(S(=O)(=O)c2ccc(CNC(=O)c3ccc4nccn4c3)cc2)c1F` are 3.3 nM and 7.5 nM.
On the same counts, the results for `Cc1cccc(S(=O)(=O)c2ccc(CNC(=O)c3cnc4[nH]ncc4c3)cc2)c1F` are 23.9 nM and 19.7 nM.
On the same counts, the results for `Cc1cccc(S(=O)(=O)c2ccc(CNC(=O)c3cc4ccncc4s3)cc2)c1F` are 3.3 nM and 10.7 nM.
As for `COc1ccc(S(=O)(=O)c2ccc(CNC(=O)c3cnc4[nH]ncc4c3)cc2)c(F)c1`, the IC50 in assay [1] (Homo sapiens, A2780, 72 h) is 207 nM; in assay [2], 120 nM.
As to `Cc1ccc(S(=O)(=O)c2ccc(CNC(=O)c3cnc4nccn4c3)cc2)c(F)c1`, the concentration for half-maximal inhibition (IC50) in assay [1] (Homo sapiens, A2780, 72 h) amounted to 61.4 nM; in assay [2], 6.3 nM.
On the same counts, the results for `Cc1ccc(S(=O)(=O)c2ccc(CNC(=O)c3cc4ccncc4o3)cc2)c(F)c1` are 25.3 nM and 12.3 nM.
On the same counts, the results for `COc1ccc(F)c(S(=O)(=O)c2ccc(CNC(=O)c3cnc4nccn4c3)cc2)c1` are 62.9 nM and 10.4 nM.
As to `COc1ccc(F)c(S(=O)(=O)c2ccc(CNC(=O)c3ccc4nccn4c3)cc2)c1`, the IC50 was 12.8 nM in assay [1] (Homo sapiens, A2780, 72 h) and 4.7 nM in assay [2].
With `COc1ccc(F)c(S(=O)(=O)c2ccc(CNC(=O)c3cc4cnccc4[nH]3)cc2)c1`, the IC50 was found to be 14.4 nM in assay [1] (Homo sapiens, A2780, 72 h) and 77.8 nM in assay [2].
For the compound `COc1ccc(F)c(S(=O)(=O)c2ccc(CNC(=O)c3cc4ccncc4s3)cc2)c1`, the half-inhibitory concentration (IC50) in assay [1] (Homo sapiens, A2780, 72 h) was 12.8 nM; in assay [2], 2.3 nM.
On the same counts, the results for `COc1ccc(F)c(S(=O)(=O)c2ccc(CNC(=O)c3cc4ccncc4o3)cc2)c1` are 63.7 nM and 26.8 nM.
On the same counts, the results for `Cc1ccc(F)c(S(=O)(=O)c2ccc(CNC(=O)c3cnc4nccn4c3)cc2)c1` are 27.5 nM and 6.8 nM.
In the case of `Cc1ccc(F)c(S(=O)(=O)c2ccc(CNC(=O)c3cnc4[nH]ncc4c3)cc2)c1`, the results for the IC50 in assay [1] and in assay [2] were 71.6 nM and 24.1 nM, respectively.
Consider `Cc1ccc(F)c(S(=O)(=O)c2ccc(CNC(=O)c3cc4ccncc4o3)cc2)c1`, for which the 50% inhibitory concentration (IC50) is 13.4 nM in assay [1] (Homo sapiens, A2780, 72 h) and 5.9 nM in assay [2].
On the same counts, the results for `CCCOc1cccc(F)c1S(=O)(=O)c1ccc(CNC(=O)c2cc3ccncc3o2)cc1` are 14.2 nM and 13.3 nM.
As to `CCCOc1cccc(F)c1S(=O)(=O)c1ccc(CNC(=O)c2ccc3nccn3c2)cc1`, the IC50 in assay [1] (Homo sapiens, A2780, 72 h) came out at 1 nM; in assay [2], 91.4 nM.
`CCCOc1cccc(F)c1S(=O)(=O)c1ccc(CNC(=O)c2cc3ccncc3s2)cc1`: the IC50 was 29.3 nM in assay [1] (Homo sapiens, A2780, 72 h) and 11.5 nM in assay [2].
As for `CS(=O)(=O)c1ccccc1S(=O)(=O)c1ccc(CNC(=O)c2cc3ccncc3o2)cc1`, the IC50 in assay [1] (Homo sapiens, A2780, 72 h) was 100 to 1000 nM; in assay [2] it was 54.2 nM.
For `CS(=O)(=O)c1ccccc1S(=O)(=O)c1ccc(CNC(=O)c2cnc3[nH]ncc3c2)cc1`, the concentration for half-maximal inhibition (IC50) in assay [1] (Homo sapiens, A2780, 72 h) was 100 to 1000 nM; in assay [2], 202 nM.
On the same counts, the results for `COc1ccc(C)cc1S(=O)(=O)c1ccc(CNC(=O)c2cc3ccncc3o2)cc1` are 6.8 nM and 13.3 nM.
With `COc1ccc(C)cc1S(=O)(=O)c1ccc(CNC(=O)c2cnc3nccn3c2)cc1`, the IC50 in assay [1] (Homo sapiens, A2780, 72 h) came out at 7.2 nM; in assay [2], 3.9 nM.
In the case of `CCCOc1ccc(S(=O)(=O)c2ccc(CNC(=O)c3ccc4nccn4c3)cc2)c(C)c1`, the IC50 was determined as 13.3 nM in assay [1] (Homo sapiens, A2780, 72 h) and 9.2 nM in assay [2].
On the same counts, the results for `CCCOc1ccc(S(=O)(=O)c2ccc(CNC(=O)c3cnc4[nH]ncc4c3)cc2)c(C)c1` are 79.4 nM and 64.4 nM.
Consider `CCCOc1ccc(S(=O)(=O)c2ccc(CNC(=O)c3cc4ccncc4o3)cc2)c(C)c1`, for which the IC50 was 59.6 nM in assay [1] (Homo sapiens, A2780, 72 h) and 22.5 nM in assay [2].
On the same counts, the results for `CCCOc1ccc(S(=O)(=O)c2ccc(CNC(=O)c3cc4cnccc4[nH]3)cc2)c(C)c1` are 22.1 nM and 30.5 nM.
For `CCCOc1ccc(S(=O)(=O)c2ccc(CNC(=O)c3cnc4nccn4c3)cc2)c(C)c1`, the IC50 worked out at 51.8 nM in assay [1] (Homo sapiens, A2780, 72 h) and 10 nM in assay [2].
On the same counts, the results for `O=C(NCc1ccc(S(=O)(=O)c2ccccc2Oc2ccccc2)cc1)c1cc2ccncc2o1` are 1000 to 10000 nM and 20.4 nM.
On the same counts, the results for `O=C(NCc1ccc(S(=O)(=O)c2ccccc2Oc2ccccc2)cc1)c1cnc2nccn2c1` are 100 to 1000 nM and 8.5 nM.
On the same counts, the results for `O=C(NCc1ccc(S(=O)(=O)c2cccc(F)c2F)cc1)c1cnc2[nH]ncc2c1` are 279 nM and 82 nM.
For the compound `COc1cc(C)cc(S(=O)(=O)c2ccc(CNC(=O)c3cnc4nccn4c3)cc2)c1OC`, the half-maximal inhibitory concentration (IC50) in assay [1] (Homo sapiens, A2780, 72 h) was 15.6 nM; in assay [2], 4.2 nM.
Take `COc1cc(C)cc(S(=O)(=O)c2ccc(CNC(=O)c3cnc4[nH]ncc4c3)cc2)c1OC`: the concentration for half-maximal inhibition (IC50) in assay [1] (Homo sapiens, A2780, 72 h) is 58.6 nM; in assay [2], 146 nM.
On the same counts, the results for `COc1cc(C)cc(S(=O)(=O)c2ccc(CNC(=O)c3cc4ccncc4o3)cc2)c1OC` are 7 nM and 15.2 nM.
On the same counts, the results for `COc1cccc(S(=O)(=O)c2ccc(CNC(=O)c3cc4cnccc4[nH]3)cc2)c1OC` are 4.9 nM and 11.7 nM.
Regarding `COc1ccc(OC)c(S(=O)(=O)c2ccc(CNC(=O)c3cc4ccncc4o3)cc2)c1OC`, the IC50 is 66.7 nM in assay [1] (Homo sapiens, A2780, 72 h) and 39.9 nM in assay [2].
On the same counts, the results for `O=C(NCc1ccc(S(=O)(=O)c2ccc(Cl)c(Cl)c2)cc1)c1cc2ccncc2o1` are 4.8 nM and 10.4 nM.
On the same counts, the results for `O=C(NCc1ccc(S(=O)(=O)c2ccc(Cl)c(Cl)c2)cc1)c1cnc2nccn2c1` are 1.7 nM and 1.5 nM.

(Values after US12336981B2, “Compounds and compositions for the inhibition of NAMPT” (Valo Health, Inc., priority 2010, dated 2025).)
